Source: patent publication US20140357654A1, “METHODS OF TREATING SCHIZOPHRENIA WITH PHENYLALANINE ENAMIDE DERIVATIVE INHIBITORS OF a4 INTEGRIN POSSESSING A CYCLOBUTENE GROUP” (AESTUS THERAPEUTICS, INC., priority 2011, published 2014)

Tested on: Male Sprague-Dawley rats
Experiment: Reversal of PCP-induced deficit in prepulse inhibition of the acoustic startle response (PPI)
Format: in vivo, rat
Details: for reversal of PCP-induced deficit in PPI, percent PPI averaged for all three prepulse intensities: average of 69, 73 and 81 dB, FIG. 2; for reversal of PCP-induced deficit in PPI, percent PPI averaged for all three prepulse intensities / reversal of PCP-induced deficit in PPI: 50 mg/kg p.o., adult male rats; for effect on pre-pulse inhibition: 10 and 50 mg/kg p.o. 45 min before PCP 2.5 mg/kg i.p.; for reversal of PCP-induced deficit in PPI: prepulse intensity 73 dB, FIG. 1
Experimental: Male Sprague-Dawley rats weighing 210-250 g at time of experiment were used. Animals were housed in a temperature and humidity controlled environment and allowed free access to food and water prior to use.
The amplitude of the inherent startle response varies considerably from animal to animal. The gain of the platforms must be calibrated to ensure that the average startle waveform falls within the desired range. To this end, baseline studies were conducted before the full PPI protocol to allow the calibration of the platforms to be fine-tuned to the startle waveform amplitude. This also allows the animals to become acclimatised to the testing equipment prior to drug administration.
Animals were placed in restraining holders and transferred to the designated chamber. Once all holders were securely fastened to the platform, the Baseline protocol was started. This consists of: • Acclimation Period: Animals were exposed to 5 minutes of 65 decibel (dB) background noise (white noise). • Block 1: 10× startle stimulus alone (white noise, 120 dB, 40 ms) • Block 2: 6× startle stimulus alone • 6× pre-pulse plus startle stimulus (pure tone, 16 dB above background noise, • 20 ms) followed 100 ms later by the startle stimulus. • During this time, the amplitude of the startle responses was recorded. On completion of this protocol, the sensitivity of the equipment was re-calibrated where necessary by adjusting the gain settings.
The same group of rats was again subjected to the Baseline protocol described above. Again, on completion of this protocol, the sensitivity of the equipment was re-calibrated where necessary by adjusting the gain settings. […] These animals were then returned to their home cages for subsequent dosing with compound.
The study compounds were suspended from dry powder stocks in Vehicle (5% Tween 80/5% PEG/saline) and sonicated for 60 minutes at 37° C. to generate suspensions suitable for oral dosing. Control rats received Vehicle by oral gavage. PCP was dissolved in sterile saline (0.9% NaCl).
Rats were dosed with either saline (0.9% NaCl) or 2.5 mg/kg PCP by intraperitoneal injection 15 minutes prior to PPI testing.
(2 S)-2-(2-Bromo-3-oxo-spiro[3.5]non-1-en-1-ylamino)-3-[4-([2,7]naphthyridin-1-ylamino)phenyl]proprionic acid or Clozapine was administered orally by gavage 45 minutes before challenge with PCP or saline. (2S)-2-(2-Bromo-3-oxo-spiro[3.5]non-1-en-1-ylamino)-3-[4-([2,7]naphthyridin-1-ylamino)phenyl]proprionic acid was administered at 10 mg/kg and 50 mg/kg. Clozapine was administered at 5 mg/kg. Vehicle control rats received Vehicle (5% Tween 80/5% PEG/saline) by oral gavage 45 minutes before challenge with PCP or saline.
Exactly 15 minutes after the injection of PCP or saline, the full PPI protocol was started. Animals were exposed to 5 minutes of 65 dB background noise (white noise) as an acclimation period, before the acoustic stimuli began. • Block 1: 6× startle stimulus alone (white noise, 120 dB, 40 ms) • Block 2: 14× startle stimulus • 8× no pulse • 30× pre-pulse (10 each of 4, 8, and 16 dB above the background noise) followed 100 ms later by the startle stimulus. This corresponds to intensities of 69, 73 and 81 dB, respectively. A total of 52 trials were presented to the animals in this block in a pseudo-random order with a variable interval of 8 to 23 seconds, averaging 15 s between trials). • Block 3: 6× startle stimulus alone
Pre-pulse inhibition was calculated from trials in Block 2 by the following formula:
% PPI=(100×[(pulse alone score)−(prepulse+pulse score)]/pulse alone

## O=C(O)[C@H](Cc1ccc(Nc2nccc3ccncc23)cc1)NC1=C(Br)C(=O)C12CCCCC2 [(2S)-2-(2-Bromo-3-oxo-spiro[3.5]non-1-en-1-ylamino)-3-[4-([2,7]naphthyridin-1-ylamino)phenyl]proprionic acid]
50 mg/kg
  reversal of PCP-induced deficit in PPI, percent PPI averaged for all three prepulse intensities: reversal
  reversal of PCP-induced deficit in PPI: reversal
Listed as MGCD-0103, 50 mg/kg
  reversal of PCP-induced deficit in PPI, percent PPI averaged for all three prepulse intensities: significantly (p<0.05) reversed
  reversal of PCP-induced deficit in PPI: significantly (p<0.05) reversed
Prepulse intensity 69 dB (4 dB above background), rats
  effect on pre-pulse inhibition: did not have a statistically significant effect
Prepulse intensity 73 dB (8 dB above background), dose not specified (10 and 50 mg/kg p.o. tested), rats
  ability to attenuate the PCP-induced deficit in PPI: more evident
Prepulse intensity 81 dB (16 dB above background), rats
  effect on pre-pulse inhibition: did not have a statistically significant effect
